Values after ≈ are worked out from the molar mass of the structure shown. Values joined by “and” are separate entries in the source; they are usually repeats but may differ in a detail not shown here. Identical values can stand only once. Like-named read-outs stand apart in the source and are kept apart here.
How the values were obtained:
[1] = test system: PDR Acinetobacter baumannii YQ4; assay: microbe, parasite or virus in culture; type: cell-based
Description: Strain stocks were maintained at −80°C in 10% glycerol. Bacteria were streaked on fresh plates before each experiment. Most of them were cultured in LB broth containing 10 g/L NaCl at 37°C, except for Mycobacteria in 7H9 broth and Enterococcus in BHI broth. Porphyromonas gingivalis was cultured in BHI broth supplemented with 1 μg/ml vitamin k1, 5 μg/ml hemin, and 5 mg/ml L-cysteine hydrochloride at 37°C in the anaerobic chamber. The minimal inhibitory concentrations (MICs) of antimicrobials were determined using the microdilution method in the corresponding broth.
The pandrug-resistant A. baumannii YQ4 was collected from the clinical laboratory of the second hospital in Nanjing. The complete genome was sequenced by Nanopore, and the data were deposited in the GenBank with accession number CP053033.

[2] = test system: PDR A. baumannii strain YQ4; assay: checkerboard synergy, fractional inhibitory concentration (FIC); type: cell-based, Acinetobacter baumannii; settings: checkerboard method, 37°C, 20 h, two independent experiments
A. baumannii = settings: ref De Breij et al., [2018], cited from earlier work
Description: The major challenge for the therapeutic application of AMP is the degradation or inactivation in plasma (Dijksteel et al., [2021]). The bactericidal efficacy of COG1410 was further assessed in plasma. The LC99.9 values of COG1410 in PBS and 50% pooled plasma were 1.4 and 5.6 μM, respectively. This was even better than LL-37-derived AMP, SAAP-148, of which the corresponding LC99.9 values were 1.6 and 12.8 μM, against A. baumannii, respectively (De Breij et al., [2018]).

Pseudomonas aeruginosa = settings: cited from earlier work
Description: (§1) Supplement Table_1.DOCX, table 1: Table S1. Antibacterial effect of ApoE-derived peptides. | column: MIC (μM) || However, the current pipeline of novel antibiotic development is stagnant, which could not keep pace with these evolving pathogens. The pharmaceutical field turns to seek non-conventional anti-infective agents. The antimicrobial peptides (AMPs) have drawn a lot of attention as novel chemotherapeutic candidates because of their unique mechanisms of action (Mahlapuu et al., [2016]). It is known that the sources of AMPs are diverse, ranging from prokaryotes to humans (Zhang and Gallo, [2016]). One of the most promising AMPs is the protein mimetic peptide, which originates from a functional protei ...

Klebsiella pneumoniae = settings: cited from earlier work
Description: (§2) Supplement Table_1.DOCX, table 1: Table S1. Antibacterial effect of ApoE-derived peptides. | column: MIC (μM)

Staphylococcus aureus = settings: cited from earlier work
Description: as §2

A. baumannii YQ4 [3] = assay: scanning electron microscopy (SEM) of treated cells; type: cell-based, Acinetobacter baumannii
Description: The log-phase culture of A. baumannii YQ4 was prepared as described above, harvested, and washed once with PBS. The pellets were suspended in PBS supplemented with 1 × COG1410 (16 μg/ml) or 1 × polymyxin B (16 μg/ml) and incubated at 37°C for 30 min. The untreated culture was used as a positive control to observe the morphology of the intact cell. […] After washing three times with PBS, the cells were post-fixed in 1% osmium at 4 °C for 1 h. After washing in distilled water for 1 h, the bacteria were dehydrated in the ascending concentrations of ethanol. Finally, these samples were transferred to ThermoFisher Quattro SEM for image collection after tert-butanol freeze-drying and sputter coating.

A. baumannii YQ4 [4] = assay: Live/Dead BacLight SYTO-9/PI staining, confocal microscopy; type: cell-based, Acinetobacter baumannii
Description: The damage to the cytoplasmic membrane was determined as described previously (Farkas et al., [2017]), with the Live/Dead BacLight bacterial viability kit (Invitrogen L7012). The log-phase culture of A. baumannii YQ4 was washed two times and suspended in PBS with the final OD600 of 0.1. […] Then, the cells were stained with 7.5 μM SYTO-9 and 30 μM propidium iodide (PI) in dark for 15 min. In total, 5 μl of culture was spotted on a clean slide coated with a thin layer of 1% agarose. The fluorescence was observed by Olympus FV3000 confocal laser scanning microscope. For SYTO-9, the excitation and emission were 483 and 503 nm, respectively. For PI, the excitation and emission were 493 and 636 nm, respectively.

A. baumannii YQ4 [5] = assay: ATP leak assay; type: cell-based, Acinetobacter baumannii; settings: 16 μg/ml COG1410, 16 μg/ml polymyxin B or 32 μg/ml tigecycline (1× MIC), PBS, 37°C, 30 min
Description: ATP leak assay was performed using the Enhanced ATP Assay Kit of Beyotime ([…]) according to the manufacturer's manual. […] The supernatant was harvested and used for the measurement of ATP levels. In total, 100 μl of supernatant was mixed with 100 μl of working solution, and the chemiluminescence was measured by using a Biotek Synergy H1 plate reader. The untreated sample was set as a negative control. The experiments were performed in triplicate.

A. baumanii YQ4 = assay: induction of resistance through serial passage; settings: sub-MIC exposure, 55 passages
A. baumannii YQ4 [6] = assay: transmission electron microscopy (TEM) of treated cells
Escherichia coli = settings: cited from earlier work
Description: as §1

Acinetobacter baumannii = settings: ref (1); cited from earlier work
Description: as §1

Enterococcus faecium = settings: ref (1); cited from earlier work
Description: as §2

[7] = Acinetobacter baumannii, Table 2, agent alone, PDR A. baumannii strain YQ4, unit not in the table, μg/ml, read-out: MIC

Compound: NCC[C@H](O)C(=O)N[C@@H]1C[C@H](N)[C@@H](O[C@H]2O[C@H](CN)[C@@H](O)[C@H](O)[C@H]2O)[C@H](O)[C@H]1O[C@H]1O[C@H](CO)[C@@H](O)[C@H](N)[C@H]1O [AMI, amikacin]
- MIC [1, 7]: > 1020 µg/mL
- FIC with COG1410 [2]: >1

Compound: SAAP-148
- LC99.9 (A. baumannii; 50% pooled plasma): 12.8 µM
- LC99.9 (A. baumannii; PBS): 1.6 µM

Compound: C[C@@H](O)[C@H]1C(=O)N2C(C(=O)O)=C(S[C@@H]3CN[C@H](C(=O)N(C)C)C3)[C@H](C)[C@H]12 [MERO, meropenem]
- MIC [1, 7]: 32 µg/mL (≈ 83.4 µM)
- FIC with COG1410 [2]: 0.56

Compound: LRVRLASHLRKLRKRLLR [sApoE133-150, ApoE-derived peptide, location 133-150]
- MIC, Pa (Pseudomonas aeruginosa; ref (5)): 25/50
- MIC, Kp (Klebsiella pneumoniae; ref (5)): 6.25 µM
- MIC, Sa (Staphylococcus aureus; ref (5)): 3.12 µM

Compound: gentamycin [GM]
- MIC ([1]; Table 2, agent alone, PDR A. baumannii strain YQ4, unit not in the table, μg/ml): >1,024 μg/ml
- FIC with COG1410 [2]: >1

Compound: CN(C)[C@@H]1C(O)=C(C(N)=O)C(=O)[C@@]2(O)C(O)=C3C(=O)c4c(O)cccc4[C@@](C)(O)[C@H]3C[C@@H]12 [TET, tetracycline]
- MIC [1, 7]: 1020 µg/mL (≈ 2300 µM)
- FIC with COG1410 [2]: 0.31

Compound: WRKWRKRWWWRKWRKRWW [ApoEp-W, ApoE-derived peptide, locations 141-149+141-149]
- MIC, Kp (Klebsiella pneumoniae; ref (4)): <3.3 µM
- MIC, Sa (Staphylococcus aureus; ref (4)): <3.3 µM

Compound: polymyxin B [reference compound]
- cell morphology by SEM (A. baumannii YQ4 [3]): cell lysis and release of cell contents
- SYTO-9/PI staining of treated cells (A. baumannii YQ4 [4]): red fluorescence
- ATP leak (extracellular ATP) (A. baumannii YQ4 [5]): released more ATP compared to untreated cells
- increase of MIC after serial passage (A. baumanii YQ4): 64 fold
- cell membrane integrity by TEM (A. baumannii YQ4 [6]): collapse of cell walls in most of the cells

Compound: LRVRLASHLRKLRKRLLRDADDLQKRLAVY [ApoE30, ApoE-derived peptide, location 133-162]
- MIC, Ec (Escherichia coli; ref (2)): 1.3 µM
- MIC, Pa (Pseudomonas aeruginosa; ref (2)): 8.1 µM
- MIC, Sa (Staphylococcus aureus; ref (2)): 16.2 µM

Compound: LRKLRKRLLLRKLRKRLL [ApoEp, ApoE-derived peptide, locations 141-149+141-149]
- MIC, Pa (Pseudomonas aeruginosa; ref (1, 3)): 5 µM
- MIC, Sa (Staphylococcus aureus; ref (1, 3)): 35 µM

Compound: CN(C)c1cc(NC(=O)CNC(C)(C)C)c(O)c2c1C[C@H]1C[C@H]3[C@H](N(C)C)C(O)=C(C(N)=O)C(=O)[C@@]3(O)C(O)=C1C2=O [TGC, tigecycline]
- MIC [1, 7]: 32 µg/mL (≈ 54.6 µM)
- FIC with COG1410 [2]: 1.06

Compound: ApoE130−162: fragment containing the receptor-binding domain of ApoE (130–162) (TEELRVRLASHLRKLRKRLLRDADDLQKRLAVY; UniProt P02649 148-180, looked up, fragment)
- antibacterial activity, in words (Escherichia coli; ref Azuma et al., [2000]): active
- antibacterial activity, in words (Pseudomonas aeruginosa; compared with Escherichia coli, ref Azuma et al., [2000]): to a lesser extent

Compound: LRKLRKRLL [ApoE141-149, ApoE-derived peptide, location 141-149]
- MIC, Pa (Pseudomonas aeruginosa; ref (3)): 30 µM
- MIC, Sa (Staphylococcus aureus; ref (3)): void (“void” indicates that the MIC is more than 100 μM)

Compound: CC(C)(O/N=C(\C(=O)N[C@@H]1C(=O)N2C(C(=O)[O-])=C(C[n+]3ccccc3)CS[C@H]12)c1csc(N)n1)C(=O)O [CAZ, ceftazidime]
- MIC ([1]; Acinetobacter baumannii): 512 µg/mL (≈ 937 µM)
- FIC with COG1410 [2]: 0.31

Compound: LRKLRKRLVRLASHLRKLRKRLL [ApoE23, ApoE-derived peptide, locations 141-148+135-149]
- MIC, Ab (Acinetobacter baumannii): 2 µM and 2.0 µM
- MIC, Ec (Escherichia coli; ref (1)): 2.0 µM
- MIC, Pa (Pseudomonas aeruginosa; ref (1)): 2.7 µM
- MIC, Ef (Enterococcus faecium): void (“void” indicates that the MIC is more than 100 μM)
- MIC, Sa (Staphylococcus aureus; ref (1)): 5.4 µM

Compound: LRVRLASHLRKLRKRLL [COG133, ApoE-derived peptide, 133–149 of ApoE]
- MIC, Pa (Pseudomonas aeruginosa; ref (5)): 25/50
- MIC, Kp (Klebsiella pneumoniae; ref (5)): 3.12 µM
- MIC, Sa (Staphylococcus aureus; ref (5)): void (“void” indicates that the MIC is more than 100 μM)

Compound: O=C(O)c1cn(C2CC2)c2cc(N3CCNCC3)c(F)cc2c1=O [CIP, ciprofloxacin]
- MIC ([1]; Acinetobacter baumannii): 256 µg/mL (≈ 773 µM)
- FIC with COG1410 [2]: 0.8

Source: paper PMC9445589, “Apolipoprotein E mimetic peptide COG1410 combats pandrug-resistant Acinetobacter baumannii” (Frontiers in Microbiology, 2022)
